Data on 49 substances can be found in the OligoGym collection.

Oligonucleotides are written 5' to 3', each unit as a sugar letter and its base; * is a phosphorothioate linkage, no mark a phosphodiester; rarer units and linkages stand in square brackets, end groups in braces. Plain capitals give the bases only. d = 2'-deoxy (DNA); r = 2'-OH (RNA)
Also: test concentration or dose not given here.

In this series the target is UBE2H. The experiment in a line: reporter assay of Huesken 2005. To be noted: siRNA.
“sense rArCrGrCrCrArCrGrGrArGrGrArGrGrCrGrCrUdTdT / antisense rArGrCrGrCrCrUrCrCrUrCrCrGrUrGrGrCrGrUdAdT”: the normalised inhibition (eCFP-eYFP dual reporter) is 71.9%.
Then “sense rArCrUrUrGrGrArCrArGrCrUrCrUrCrUrArUrGdTdT / antisense rCrArUrArGrArGrArGrCrUrGrUrCrCrArArGrUdTdT”, with 86%; and “sense rArGrArGrGrGrUrArCrCrGrGrGrGrArCrArGrCdTdT / antisense rGrCrUrGrUrCrCrCrCrGrGrUrArCrCrCrUrCrUdTdC”, with 65%.
As for “sense rArGrGrArArCrUrGrUrGrUrGrUrCrUrArGrArUdTdT / antisense rArUrCrUrArGrArCrArCrArCrArGrUrUrCrCrUdGdA”, the normalised inhibition (eCFP-eYFP dual reporter) was 100%.
On to “sense rArGrGrGrUrArCrCrGrGrGrGrArCrArGrCrUrCdTdT / antisense rGrArGrCrUrGrUrCrCrCrCrGrGrUrArCrCrCrUdCdT”, for which the normalised inhibition (eCFP-eYFP dual reporter) came to 77.2%.
Turning to “sense rArGrGrUrUrArCrGrArUrCrCrUrGrGrGrArGrGdTdT / antisense rCrCrUrCrCrCrArGrGrArUrCrGrUrArArCrCrUdCdA”, the normalised inhibition (eCFP-eYFP dual reporter) came out at 84.1%.
In the case of “sense rArGrUrGrArArGrUrUrUrUrArUrGrGrArCrCrAdTdT / antisense rUrGrGrUrCrCrArUrArArArArCrUrUrCrArCrUdAdC”, the normalised inhibition (eCFP-eYFP dual reporter) is 95.5%.
The value for “sense rArGrUrGrGrArCrCrUrArCrCrUrGrArUrArArAdTdT / antisense rUrUrUrArUrCrArGrGrUrArGrGrUrCrCrArCrUdCdT” was 108%.
The value for “sense rArUrArCrCrCrUrUrUrCrArArArUrCrUrCrCrAdTdT / antisense rUrGrGrArGrArUrUrUrGrArArArGrGrGrUrArUdTdT” was 99.2%; that for “sense rArUrArGrGrArUrUrCrArUrGrArArUrArArArAdTdT / antisense rUrUrUrUrArUrUrCrArUrGrArArUrCrCrUrArUdAdG” was 106%; that for “sense rArUrCrGrArGrArGrUrArArArCrArUrGrArGrGdTdT / antisense rCrCrUrCrArUrGrUrUrUrArCrUrCrUrCrGrArUdGdA” was 71.1%.
On to “sense rArUrCrUrArUrArGrGrArUrUrCrArUrGrArArUdTdT / antisense rArUrUrCrArUrGrArArUrCrCrUrArUrArGrArUdGdG”, for which the normalised inhibition (eCFP-eYFP dual reporter) is 95.3%.
Then “sense rArUrGrArGrGrUrUrArCrGrArUrCrCrUrGrGrGdTdT / antisense rCrCrCrArGrGrArUrCrGrUrArArCrCrUrCrArUdGdT”, with 77.7%; and “sense rArUrGrGrArCrCrArCrArArGrGrArArCrArCrCdTdT / antisense rGrGrUrGrUrUrCrCrUrUrGrUrGrGrUrCrCrArUdAdA”, with 34%.
Then “sense rArUrGrGrUrGrArCrGrCrUrGrCrArGrCrCrArUdTdT / antisense rArUrGrGrCrUrGrCrArGrCrGrUrCrArCrCrArUdTdG”, with 86.6%; and “sense rArUrUrGrGrCrCrUrArUrCrCrUrArArCrCrCrCdTdT / antisense rGrGrGrGrUrUrArGrGrArUrArGrGrCrCrArArUdAdA”, with 36.2%; and “sense rArUrUrUrGrArGrUrCrCrUrUrCrCrUrGrCrCrUdTdT / antisense rArGrGrCrArGrGrArArGrGrArCrUrCrArArArUdAdT”, with 48.2%.
The value for “sense rCrArArGrGrArArCrArCrCrArUrArUrGrArArGdTdT / antisense rCrUrUrCrArUrArUrGrGrUrGrUrUrCrCrUrUrGdTdG” was 99.5%.
As to “sense rCrArArUrArUrArUrUrUrGrArGrUrCrCrUrUrCdTdT / antisense rGrArArGrGrArCrUrCrArArArUrArUrArUrUrGdGdT”, the normalised inhibition (eCFP-eYFP dual reporter) was found to be 84.2%.
The value for “sense rCrArGrArArArArUrUrArArArGrArGrUrArCrAdTdT / antisense rUrGrUrArCrUrCrUrUrUrArArUrUrUrUrCrUrGdCdT” was 78.6%; that for “sense rCrArGrArArGrArArUrArCrArArGrCrArGrArAdTdT / antisense rUrUrCrUrGrCrUrUrGrUrArUrUrCrUrUrCrUrGdGdT” was 77.7%; that for “sense rCrArGrCrCrArUrGrUrArCrCrUrCrCrArCrCrGdTdT / antisense rCrGrGrUrGrGrArGrGrUrArCrArUrGrGrCrUrGdCdA” was 61.4%.
Then “sense rCrArGrGrArArGrArGrGrGrUrArCrCrGrGrGrGdTdT / antisense rCrCrCrCrGrGrUrArCrCrCrUrCrUrUrCrCrUrGdTdT”, with 74.7%.
Then “sense rCrArUrCrGrArGrArGrUrArArArCrArUrGrArGdTdT / antisense rCrUrCrArUrGrUrUrUrArCrUrCrUrCrGrArUrGdAdG”, with 70.2%; and “sense rCrArUrGrArArUrArArArArUrUrUrUrCrCrArUdTdT / antisense rArUrGrGrArArArArUrUrUrUrArUrUrCrArUrGdAdA”, with 64%.
Take “sense rCrCrArCrCrGrArCrCrArGrArArGrArArUrArCdTdT / antisense rGrUrArUrUrCrUrUrCrUrGrGrUrCrGrGrUrGrGdAdG”: the normalised inhibition (eCFP-eYFP dual reporter) is 82.5%.
Then “sense rCrCrArGrArArGrArArUrArCrArArGrCrArGrAdTdT / antisense rUrCrUrGrCrUrUrGrUrArUrUrCrUrUrCrUrGrGdTdC”, with 104%.
The value for “sense rCrCrArUrArUrGrArArGrGrCrGrGrArGrUrArUdTdT / antisense rArUrArCrUrCrCrGrCrCrUrUrCrArUrArUrGrGdTdG” was 102%; that for “sense rCrCrGrArCrCrArGrArArGrArArUrArCrArArGdTdT / antisense rCrUrUrGrUrArUrUrCrUrUrCrUrGrGrUrCrGrGdTdG” was 86.4%; that for “sense rCrCrUrArArCrCrCrCrArUrArGrArUrCrCrUrCdTdT / antisense rGrArGrGrArUrCrUrArUrGrGrGrGrUrUrArGrGdAdT” was 66.9%.
As to “sense rCrGrArGrArGrUrArArArCrArUrGrArGrGrUrUdTdT / antisense rArArCrCrUrCrArUrGrUrUrUrArCrUrCrUrCrGdAdT”, the normalised inhibition (eCFP-eYFP dual reporter) amounted to 98%.
Consider “sense rCrGrCrCrArCrGrGrArGrGrArGrGrCrGrCrUrGdTdT / antisense rCrArGrCrGrCrCrUrCrCrUrCrCrGrUrGrGrCrGdTdA”, for which the normalised inhibition (eCFP-eYFP dual reporter) was determined as 66.8%.
Consider “sense rCrGrUrCrArGrGrArArCrUrGrUrGrUrGrUrCrUdTdT / antisense rArGrArCrArCrArCrArGrUrUrCrCrUrGrArCrGdCdT”, for which the normalised inhibition (eCFP-eYFP dual reporter) was 99.9%.
The value for “sense rCrUrArUrGrArUrCrUrUrArCrCrArArUrArUrAdTdT / antisense rUrArUrArUrUrGrGrUrArArGrArUrCrArUrArGdAdG” was 110%.
Then “sense rCrUrUrGrGrArCrArGrCrUrCrUrCrUrArUrGrAdTdT / antisense rUrCrArUrArGrArGrArGrCrUrGrUrCrCrArArGdTdT”, with 81%; and “sense rGrArArCrUrGrUrGrUrGrUrCrUrArGrArUrGrUdTdT / antisense rArCrArUrCrUrArGrArCrArCrArCrArGrUrUrCdCdT”, with 98.4%; and “sense rGrArArGrArArUrArCrArArGrCrArGrArArArAdTdT / antisense rUrUrUrUrCrUrGrCrUrUrGrUrArUrUrCrUrUrCdTdG”, with 95.1%.
The value for “sense rGrArArUrArCrArArGrCrArGrArArArArUrUrAdTdT / antisense rUrArArUrUrUrUrCrUrGrCrUrUrGrUrArUrUrCdTdT” was 93.1%; that for “sense rGrArArUrUrUrGrUrArGrUrGrArArGrUrUrUrUdTdT / antisense rArArArArCrUrUrCrArCrUrArCrArArArUrUrCdAdT” was 96.7%; that for “sense rGrArCrGrCrUrGrCrArGrCrCrArUrGrUrArCrCdTdT / antisense rGrGrUrArCrArUrGrGrCrUrGrCrArGrCrGrUrCdAdC” was 55.3%.
Turning to “sense rGrArGrGrUrUrArCrGrArUrCrCrUrGrGrGrArGdTdT / antisense rCrUrCrCrCrArGrGrArUrCrGrUrArArCrCrUrCdAdT”, the normalised inhibition (eCFP-eYFP dual reporter) stood at 57.3%.
For the substance “sense rGrArGrUrArCrArUrCrCrArGrArArArUrArCrGdTdT / antisense rCrGrUrArUrUrUrCrUrGrGrArUrGrUrArCrUrCdTdT”, the normalised inhibition (eCFP-eYFP dual reporter) stood at 77.6%.
Take “sense rGrArGrUrArUrGrGrArArArGrUrUrArGrArGrUdTdT / antisense rArCrUrCrUrArArCrUrUrUrCrCrArUrArCrUrCdCdG”: the normalised inhibition (eCFP-eYFP dual reporter) stood at 83.6%.
The value for “sense rGrArUrArArArUrArCrCrCrUrUrUrCrArArArUdTdT / antisense rArUrUrUrGrArArArGrGrGrUrArUrUrUrArUrCdAdG” was 102%.
“sense rGrArUrCrUrUrArCrCrArArUrArUrArUrUrUrGdTdT / antisense rCrArArArUrArUrArUrUrGrGrUrArArGrArUrCdAdT”: the normalised inhibition (eCFP-eYFP dual reporter) amounted to 78.3%.
As to “sense rGrGrArGrGrArGrGrCrGrCrUrGrArArArGrArAdTdT / antisense rUrUrCrUrUrUrCrArGrCrGrCrCrUrCrCrUrCrCdGdT”, the normalised inhibition (eCFP-eYFP dual reporter) worked out at 91.9%.
With “sense rGrGrCrGrCrUrGrArArArGrArArCrArGrGrArAdTdT / antisense rUrUrCrCrUrGrUrUrCrUrUrUrCrArGrCrGrCrCdTdC”, the normalised inhibition (eCFP-eYFP dual reporter) turned out to be 98.5%.
Then “sense rGrGrGrUrArCrCrGrGrGrGrArCrArGrCrUrCrAdTdT / antisense rUrGrArGrCrUrGrUrCrCrCrCrGrGrUrArCrCrCdTdC”, with 71.9%; and “sense rGrGrUrGrArCrGrCrUrGrCrArGrCrCrArUrGrUdTdT / antisense rArCrArUrGrGrCrUrGrCrArGrCrGrUrCrArCrCdAdT”, with 91%.
